From patent US20260356860A1, “2-SUBSTITUTED 3,4A,5,7,8,8A-HEXAHYDRO-4H-THIOPYRANO[4,3-DJPYRIMIDIN-4-ONES FOR WOUND TREATMENT” (priority 2022, published 2026) come the findings set out here.

A word on the IC50: it is the concentration needed to halve the response being measured. A high value points to weaker potency.

One test addresses T1, Tankyrase 2 (TNKS2) (Homo sapiens, UniProt Q9H2K2).
T1 sequence (Q9H2K2 1-1166): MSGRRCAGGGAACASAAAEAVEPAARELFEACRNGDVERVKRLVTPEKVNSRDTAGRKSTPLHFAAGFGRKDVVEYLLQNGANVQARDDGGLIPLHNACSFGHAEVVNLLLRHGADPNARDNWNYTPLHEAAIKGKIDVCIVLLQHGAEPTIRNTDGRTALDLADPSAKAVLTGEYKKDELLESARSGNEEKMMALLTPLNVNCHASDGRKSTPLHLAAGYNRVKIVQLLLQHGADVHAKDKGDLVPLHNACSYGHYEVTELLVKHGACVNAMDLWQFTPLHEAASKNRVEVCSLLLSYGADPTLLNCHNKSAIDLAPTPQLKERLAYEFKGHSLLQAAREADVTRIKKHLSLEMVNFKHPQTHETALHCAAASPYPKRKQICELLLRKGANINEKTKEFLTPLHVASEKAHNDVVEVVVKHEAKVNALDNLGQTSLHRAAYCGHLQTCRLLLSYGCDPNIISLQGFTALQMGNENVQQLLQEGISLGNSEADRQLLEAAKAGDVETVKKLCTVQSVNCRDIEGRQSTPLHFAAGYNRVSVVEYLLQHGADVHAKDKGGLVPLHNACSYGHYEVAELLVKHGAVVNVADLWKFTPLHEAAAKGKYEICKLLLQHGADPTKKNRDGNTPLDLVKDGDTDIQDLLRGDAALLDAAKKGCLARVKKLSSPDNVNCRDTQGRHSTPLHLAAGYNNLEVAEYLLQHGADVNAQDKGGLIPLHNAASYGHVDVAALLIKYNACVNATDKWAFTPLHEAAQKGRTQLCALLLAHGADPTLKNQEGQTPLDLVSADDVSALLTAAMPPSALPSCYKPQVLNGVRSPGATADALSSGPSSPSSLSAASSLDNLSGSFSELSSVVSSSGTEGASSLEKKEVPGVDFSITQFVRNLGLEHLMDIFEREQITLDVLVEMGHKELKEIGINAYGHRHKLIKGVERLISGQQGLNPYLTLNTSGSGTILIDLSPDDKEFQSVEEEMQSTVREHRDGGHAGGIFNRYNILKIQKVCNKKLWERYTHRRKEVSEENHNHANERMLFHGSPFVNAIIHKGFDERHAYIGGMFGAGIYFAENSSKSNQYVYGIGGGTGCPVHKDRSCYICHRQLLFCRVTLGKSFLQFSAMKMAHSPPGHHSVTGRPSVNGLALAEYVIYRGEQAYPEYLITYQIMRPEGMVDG
Nature of the test: TNK2 Binding Assay (Tankyrase 2 ribosylation, chemiluminescence). It is filed as biochemical. The method, then:
Tankyrase 2 assay (n=3) was performed with the following steps: step 1, coating a 96-well plate with 50 μL/well of histone solution; step 2, conducting ribosylation reaction; and step 3, detection.
Step 1: Coating a 96-Well Plate with 50 μL/Well of Histone Solution.
A 5× histone mixture was diluted 1:5 with PBS to make a 1× histone in PBS mixture. 50 μL of the histone mixture was added to each well and incubated at 4° C. overnight. The plate was washed three times using 200 μL PBST buffer (1×PBS containing 0.05% Tween*20 (polysorbate 20) per well. The plate was tapped onto a clean paper towel to remove the liquid. The wells were blocked by adding 200 μL of blocking buffer 3 to each well. The plate was incubated at room temperature for at least 90 minutes. The plate was washed three times with 200 μL PBST buffer. The plate was tapped onto a clean paper towel to remove the liquid.
A fresh solution of 10 mM DTT in water was prepared.
A master mix was prepared and delivered to each well (25 μL/well). Master mix delivered to each well: (2.5 μL of 10×PARP assay buffer (purchased from BPS Bioscience)+2.5 μL of PARP substrate mixture 2+17.5 μL of water+2.5 μL of 10 mM fresh DTT). The concentration of DTT in the master mix was 1 mM. 25 μL of master mix was added to each well.
1×PARP buffer with DTT was prepared. 10×PARP assay buffer was diluted to 1×PARP assay buffer containing DTT by adding 1 volume of 10×PARP assay buffer+1 volume of 10 mM DTT+8 volumes of water. The concentration of DTT in the 1×PARP assay buffer was 1 mM.
5 μL of a test inhibitor was added to each well labeled as “Test Inhibitor.” For the “Positive Control,” the PARP inhibitor, XAV939, was used. For the negative control, no inhibitor is added to the assay mix.
The Tankyrase 2 (TNKS2) enzyme on ice was thawed. The tube containing the enzyme was spun briefly to recover the full content of the tube. The amount of TNKS2 enzyme required for the assay was calculated and the enzyme was diluted to 0.5 ng/μL with 1×PARP assay buffer with DTT. 16) The final concentration of TNKS2 enzyme in the assay was 2 nM. The reaction was initiated by adding 10 μL of diluted TNKS2 enzyme to each well designated “Positive Control” and “Test Inhibitor.” To each well designated as “Blank,” 10 μL of 1×PARP assay buffer with DTT was added. The plate was incubated at room temperature for 1 hour. The plate was washed three times with 100 μL of PBST buffer and the plate was tapped onto a clean paper towel.
1) Streptavidin-HRP was diluted 1:50 in Blocking buffer (purchased from BPS Bioscience) 3.50 μL of diluted Streptavidin-RP was added to each well and incubated for 30 minutes at room temperature. The plate was washed three times with 100 μL of PBST buffer and tapped onto a clean paper towel. Just before use, 1 volume of ELISA ECL Substrate A and 1 volume of ELISA ECL Substrate B were mixed on ice; and 100 μL was added to each well. Immediately, the plate was read in a luminometer or microtiter-plate reader capable of reading chemiluminescence. The “Blank” value was subtracted from all other values.

The next test has as its system new porcine skin. Nature of the test: Max force of healed wound. It is filed as in vivo. Particulars: day 21; for Max Force / Max Force, Mean: topical. As for the experimental part: Additional tests were performed including elasticity (Table 12); max force (Table 13); tensile strength (strain) (Table 14); energy peak (Table 15); rete-ridge formation; and collagen organization (plane polarized light) (FIG. 24) of the healed wound sites, described as follows.
A is saline (control), B is serum formulation control (vehicle), C is GO-HA (vehicle), D is Compound 1; E is Compound 1+GO-HA; F is Compound 8; G is Compound 8+GO-HA; H is Compound 10; and J is Compound 10+GO-HA. Descriptions for saline control, serum formulation control, and GO-HA are as provided above for FIG. 19.
Max Force (N) is the average force required to break/rupture a material. All compounds of Formula (I) tested with or without GO-HA ranged from 18% to 68% improvement in max force compared to the saline control.

Compound `O=c1[nH]c(-c2ccc(B(O)O)cc2)nc2c1CSCC2` [Compound 1, (4-(4-oxo-3,5,7,8-tetrahydro-4H-thiopyrano[4,3-d]pyrimidin-2-yl)phenyl)boronic acid] yielded a half-inhibitory concentration (IC50) at Tankyrase 2 (TNKS2) of 26 nM. Also, the “Max Force” value in the test with new porcine skin (individual value 1) was 290.184 N; in the test with new porcine skin (individual value 2) it was 278.868 N; in the test on new porcine skin (individual value 3), 250.554 N; in the test with new porcine skin (individual value 4), 273.195 N. Besides, the “Max Force, Mean” value with new porcine skin is listed as 273.200 N.

`O=c1[nH]c(-c2ccc(-c3ccc(Br)nc3)cc2)nc2c1CSCC2` [Compound 7, 2-(4-(6-bromopyridin-3-yl)phenyl)-3,5,7,8-tetrahydro-4H-thiopyrano [4,3-d]pyrimidin-4-one] gave an IC50 at Tankyrase 2 (TNKS2) of 5 nM.

`CC(C)(OCCO)c1ccc(-c2nc3c(c(=O)[nH]2)CSCC3)cc1` [Compound 8, 2-(4-(2-(2-hydroxyethoxy)propan-2-yl)phenyl)-3,5,7,8-tetrahydro-4H-thiopyrano[4,3-d]pyrimidin-4-one] displayed an IC50 on Tankyrase 2 (TNKS2) of 3.16 nM. For the same compound, the “Max Force” value with new porcine skin (individual value 1) came out at 404.094 N; with new porcine skin (individual value 2) it was 488.094 N; in the test on new porcine skin (individual value 3) it was 273.110 N; in the test on new porcine skin (individual value 4) it was 330.413 N; in the test on new porcine skin (individual value 5), 169.61 N. For the same compound, the “Max Force, Mean” value with new porcine skin is given as 333.196 N.

In turn, `O=c1[nH]c(-c2ccc(-c3ccc(B(O)O)cc3)cc2)nc2c1CSCC2` [Compound 10, (4′-(4-oxo-3,5,7,8-tetrahydro-4H-thiopyrano[4,3-d]pyrimidin-2-yl)-[1,1′-biphenyl]-4-yl)boronic acid] yielded an IC50 on Tankyrase 2 (TNKS2) of 3.29 nM. In the test on new porcine skin, the “improvement in max force compared to the saline control” value is recorded as 68%. For the same compound, the “Max Force” value in the test on new porcine skin (individual value 1) came out at 406.879 N; in the test with new porcine skin (individual value 2), 474.825 N; in the test with new porcine skin (individual value 3), 344.860 N; in the test on new porcine skin (individual value 4), 335.864 N. Besides, the “Max Force, Mean” value in the test on new porcine skin was 390.607 N.

`COC(=O)NCCOC(C)(C)c1ccc(-c2nc3c(c(=O)[nH]2)CSCC3)cc1` [Compound 18, methyl (2-((2-(4-(4-oxo-3,5,7,8-tetrahydro-4H-thiopyrano[4,3-d]pyrimidin-2-yl)phenyl)propan-2-yl)oxy)ethyl)carbamate] had an IC50 at Tankyrase 2 (TNKS2) of 4 nM.
